This passage reports inhibition, IC50 and Activity results from ChEMBL document CHEMBL3399917, “Design, synthesis and antiproliferative activity evaluation of m-(4-morpholinyl-1,3,5-triazin-2-yl)benzamides in vitro” (Bioorg Med Chem Lett, 2015).

Each structure is given as a SMILES string. The source made the active and inactive calls. No cut-off for these calls is given here.

The nature of assay [1]: Antiproliferative activity against human HCT116 cells assessed as inhibitory ratio at 10 uM after 72 hrs by MTT assay. The format is functional. Conditions: HCT-116, 72 h. For orientation: Tetrazolium dyes change colour on reduction, which living cells bring about.
Assay [2] concerns A549. The experiment in a line: Antiproliferative activity against human A549 cells after 72 hrs by MTT assay. It counts as functional, cell-based. To be noted: A549, 72 h.
The subject of assay [3] is MCF7. The experiment in a line: Antiproliferative activity against human MCF7 cells after 72 hrs by MTT assay. Conditions: MCF7, 72 h. It counts as functional, cell-based.
Assay [4] is described as follows: Antiproliferative activity against human U87MG cells after 72 hrs by MTT assay. It counts as functional, cell-based, U-87MG ATCC. To be noted: U-87 MG.
The test system of assay [5] is HeLa. The experiment in a line: Antiproliferative activity against human HeLa cells after 72 hrs by MTT assay. The format is functional, cell-based.
The subject of assay [6] is MCF7. The assay is described as follows: Antiproliferative activity against human MCF7 cells assessed as inhibitory ratio at 10 uM after 72 hrs by MTT assay. The format is functional. Conditions: MCF7, 72 h.
Assay [7] can be described thus: Antiproliferative activity against human HCT116 cells after 72 hrs by MTT assay. It counts as functional, cell-based. To be noted: HCT-116, 72 h.
Assay [8] concerns HCT-116. The experiment in a line: Inhibition of PI3K/Akt in human HCT116 cells assessed as Akt phosphorylation at 10 uM after 1 hr by Western blotting analysis. It counts as cell-based.
The subject of assay [9] is HCT-116. The experiment in a line: Induction of apoptosis in human HCT116 cells assessed as cell shrinking and vacuolization, chromatin condensation and nuclear fragmentation after 24 hrs by Hoechst staining based phase contrast microscopy. The format is functional.

One may read the inhibition as the drop in the measured response relative to a control, in per cent. Broadly, the IC50 is the concentration needed to halve the response being measured. For `NC(=O)c1cc(-c2nc(N3CCOCC3)nc(N3CCOCC3)n2)cc(C(F)(F)F)c1`, the results for the inhibition at 10 µM in assay [1] and in [6] were 71.4% and 59.3%, respectively. The 50% inhibitory concentration (IC50) in assay [2] was 8230 nM; in assay [3] it was 4970 nM; in assay [4] it was 11200 nM; in assay [5] it was 8070 nM; in [7] it was 2430 nM.

On to `COC(=O)c1cc(-c2nc(N3CCOCC3)nc(N3CCOCC3)n2)cc(C(F)(F)F)c1`, for which the inhibition at 10 µM in assay [1] came out at 40%; in assay [6] it was 37.2%.

As for `CS(=O)(=O)NC1CCN(c2nc(-c3cc(C(N)=O)cc(C(F)(F)F)c3)nc(N3CCOCC3)n2)CC1`, the inhibition at 10 µM in [1] worked out at 19%; in assay [6], 49.3%.

With `CS(=O)(=O)N1CCN(c2nc(-c3cc(C(N)=O)cc(C(F)(F)F)c3)nc(N3CCOCC3)n2)CC1`, the inhibition at 10 µM in assay [1] came to 19.4%; in [6] it was 47.4%.

For the molecule `NC(=O)c1cc(O)cc(-c2nc(N3CCOCC3)nc(N3CCOCC3)n2)c1`, the results for the inhibition at 10 µM in assay [1] and in assay [6] were 77.9% and 65.8%, respectively. The IC50 in [2] is 3720 nM; in assay [3] it was 2170 nM; in assay [4], 3210 nM; in [5], 8170 nM; in assay [7] it was 1190 nM.

With `COc1cc(C(N)=O)cc(-c2nc(N3CCOCC3)nc(N3CCOCC3)n2)c1`, the inhibition at 10 µM in [1] was found to be 41.2%; in assay [6] it was 42.2%.

Regarding `O=C(O)c1cc(-c2nc(N3CCOCC3)nc(N3CCOCC3)n2)cc(C(F)(F)F)c1`, the inhibition at 10 µM in assay [1] was 44.9%; in [6], 34.4%.

Turning to `NC(=O)c1cc(OCc2ccccc2)cc(-c2nc(N3CCOCC3)nc(N3CCOCC3)n2)c1`, the inhibition at 10 µM stood at 31.6% in assay [1] and 32.5% in [6].

Turning to `NC(=O)c1cc(-c2nc(N3CCOCC3)nc(N3CCOCC3)n2)ccc1O`, the values for the inhibition at 10 µM in [1] and in assay [6] were 31.7% and 32.7%, respectively.

Take `CN(CCCC(=O)N1CCN(S(C)(=O)=O)CC1)c1nc(-c2cc(C(N)=O)cc(C(F)(F)F)c2)nc(N2CCOCC2)n1`: the inhibition at 10 µM in [1] is 40.8%; in assay [6] it was 37.7%.

Take `CN(CCCC(=O)N1CCOCC1)c1nc(-c2cc(C(N)=O)cc(C(F)(F)F)c2)nc(N2CCOCC2)n1`: the inhibition at 10 µM in assay [1] was 44.8%; in [6], 38.5%.

As for `NC(=O)c1cc(-c2nc(N3CCOCC3)nc(N3CCOCC3)n2)ccc1OCc1cccc(F)c1`, the inhibition at 10 µM in assay [1] is 35.9%; in assay [6], 26.2%.

Regarding `CN(c1nc(-c2cc(C(N)=O)cc(C(F)(F)F)c2)nc(N2CCOCC2)n1)C1CCN(S(C)(=O)=O)CC1`, the inhibition at 10 µM in [1] came out at 72%; in [6] it was 61.7%. Besides, the IC50 in assay [2] turned out to be 2360 nM; in [3], 2130 nM; in assay [4] it was 4630 nM; in assay [5], 7120 nM; in [7], 1940 nM.

Take `CS(=O)(=O)N1CCC(Nc2nc(-c3cc(C(N)=O)cc(C(F)(F)F)c3)nc(N3CCOCC3)n2)CC1`: the inhibition at 10 µM in assay [1] is 42.9%; in [6], 30.9%.

Take `Nc1cc(C(F)(F)F)c(-c2cc(N3CCOCC3)nc(N3CCOCC3)n2)cn1` [BUPARLISIB]: the inhibition at 10 µM in [1] was determined as 89.5%; in assay [6], 84%. In addition, the IC50 came to 2070 nM in [2]; 1000 nM in assay [3]; 1640 nM in assay [4]; 4340 nM in [5]; 480 nM in [7]. Besides, in assay [8], the inhibition result was “Active”.

Take `NC(=O)c1cc(-c2nc(NCC(=O)N3CCOCC3)nc(N3CCOCC3)n2)cc(C(F)(F)F)c1`: the figures for the inhibition at 10 µM in [1] and in assay [6] were 29.2% and 30.3%, respectively.

`CS(=O)(=O)N1CCN(C(=O)CNc2nc(-c3cc(C(N)=O)cc(C(F)(F)F)c3)nc(N3CCOCC3)n2)CC1`: the inhibition at 10 µM in assay [1] was determined as 29.8%; in assay [6] it was 19.3%.

Turning to `NC(=O)c1cc(-c2nc(N3CCOCC3)nc(N3CCOCC3)n2)ccc1Cl`, the values for the inhibition at 10 µM in assay [1] and in [6] were 35.6% and 34.4%, respectively.

As to `NC(=O)c1cc(OC(F)(F)F)cc(-c2nc(N3CCOCC3)nc(N3CCOCC3)n2)c1`, the Activity entry in assay [9] is “Dose-dependent effect”. Moreover, the inhibition at 10 µM was 89.3% in assay [1] and 70.7% in [6]. The IC50 worked out at 2370 nM in [2]; 1250 nM in assay [3]; 1530 nM in assay [4]; 4830 nM in [5]; 900 nM in [7]. In [8], the inhibition entry is “Active”.

As for `COc1ccc(-c2nc(N3CCOCC3)nc(N3CCOCC3)n2)cc1C(N)=O`, the inhibition at 10 µM in assay [1] turned out to be 40.4%; in [6] it was 36.2%.

With `NC(=O)c1cc(-c2nc(N3CCOCC3)nc(N3CCOCC3)n2)ccc1OCc1ccc(F)cc1`, the inhibition at 10 µM in assay [1] came to 66.9%; in [6] it was 54.9%. Besides, the IC50 in [2] is 11300 nM; in assay [3] it was 5230 nM; in assay [4] it was 3980 nM; in assay [5], more than 20000 nM; in assay [7] it was 2870 nM.

With `NC(=O)c1cc(-c2nc(N3CCOCC3)nc(N3CCOCC3)n2)ccc1OCc1ccccc1`, the figures for the inhibition at 10 µM in [1] and in assay [6] were 29.9% and 31.2%, respectively.

For `NC(=O)c1cccc(-c2nc(N3CCOCC3)nc(N3CCOCC3)n2)c1`, the inhibition at 10 µM is 51.1% in [1] and 38% in assay [6].

As for `CN1CCN(c2nc(-c3cc(C(N)=O)cc(C(F)(F)F)c3)nc(N3CCOCC3)n2)CC1`, the inhibition at 10 µM in [1] was 36.2%; in assay [6], 40.2%.
